Laboratory results as given in ChEMBL document CHEMBL6134833, “Recent advances in CDC7 kinase inhibitors: Novel strategies for the treatment of cancers and neurodegenerative diseases” (Eur J Med Chem, 2025).
One block for each molecule: values may come before it.

What was measured:
[1] = target: Cyclin-dependent kinase 2/cyclin A (Homo sapiens, UniProt P24941); experiment: Inhibition of CDK2/Cyclin A (unknown origin); type: protein-complex assay
[2] = target: Casein kinase 2 (Homo sapiens, UniProt P67870+P68400+P19784+Q8NEV1); experiment: Inhibition of CK2 (unknown origin); type: protein assay
[3] = Metabolic stability in rat liver microsome assessed as microsomal clearance; type: ADME; settings: microsomes
[4] = Metabolic stability in human liver microsome assessed as microsomal clearance; type: ADME; settings: microsomes
[5] = Inhibition of MCM2 (unknown origin); design: species or system Homo sapiens
[6] = target: CDK3/Cyclin E (Homo sapiens, UniProt Q00526); experiment: Inhibition of CDK3/cyclin E1 (unknown origin) by ADP-Glo kinase assay; type: protein-complex assay
Sequence of CDK3/Cyclin E (P24864 whole entry): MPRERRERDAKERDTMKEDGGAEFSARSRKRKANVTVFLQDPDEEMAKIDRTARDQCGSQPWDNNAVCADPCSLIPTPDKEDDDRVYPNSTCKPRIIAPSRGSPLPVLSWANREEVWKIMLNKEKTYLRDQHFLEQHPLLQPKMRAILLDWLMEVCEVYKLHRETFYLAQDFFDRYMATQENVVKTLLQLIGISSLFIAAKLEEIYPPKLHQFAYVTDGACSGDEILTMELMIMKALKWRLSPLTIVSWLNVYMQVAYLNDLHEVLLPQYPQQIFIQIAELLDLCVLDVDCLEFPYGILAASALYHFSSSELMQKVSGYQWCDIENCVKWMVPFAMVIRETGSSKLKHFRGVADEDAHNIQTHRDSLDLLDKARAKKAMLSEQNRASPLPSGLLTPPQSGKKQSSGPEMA
Sequence of CDK3/Cyclin E (Q00526 whole entry): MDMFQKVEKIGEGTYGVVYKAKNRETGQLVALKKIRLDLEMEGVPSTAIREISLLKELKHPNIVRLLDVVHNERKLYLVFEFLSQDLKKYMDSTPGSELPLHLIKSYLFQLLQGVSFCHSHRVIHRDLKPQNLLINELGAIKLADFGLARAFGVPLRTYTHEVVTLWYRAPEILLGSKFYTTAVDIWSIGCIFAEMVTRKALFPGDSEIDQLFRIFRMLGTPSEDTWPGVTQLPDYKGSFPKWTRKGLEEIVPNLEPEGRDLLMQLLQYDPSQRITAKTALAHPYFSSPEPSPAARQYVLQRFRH

[7] = target: T1, Cell division cycle 7-related protein kinase (Homo sapiens, UniProt O00311); experiment: Inhibition of CDC7 (unknown origin)
T1 sequence (O00311 whole entry, the tested form may be a part): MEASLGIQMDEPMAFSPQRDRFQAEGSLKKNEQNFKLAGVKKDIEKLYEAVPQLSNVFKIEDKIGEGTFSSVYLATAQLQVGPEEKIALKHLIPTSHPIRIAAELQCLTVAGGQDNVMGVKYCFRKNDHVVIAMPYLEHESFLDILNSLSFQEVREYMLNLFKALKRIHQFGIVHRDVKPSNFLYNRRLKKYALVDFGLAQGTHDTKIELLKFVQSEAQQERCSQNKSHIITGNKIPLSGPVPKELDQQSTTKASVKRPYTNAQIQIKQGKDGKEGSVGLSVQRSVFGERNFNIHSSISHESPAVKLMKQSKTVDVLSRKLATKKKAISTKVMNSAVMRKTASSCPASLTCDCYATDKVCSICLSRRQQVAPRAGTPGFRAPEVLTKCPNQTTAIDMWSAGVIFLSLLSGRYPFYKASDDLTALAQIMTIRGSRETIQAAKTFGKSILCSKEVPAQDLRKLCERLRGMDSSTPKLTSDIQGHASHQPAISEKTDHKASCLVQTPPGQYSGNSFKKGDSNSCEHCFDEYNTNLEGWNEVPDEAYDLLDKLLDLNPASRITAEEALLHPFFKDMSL

[8] = target: T1, Cell division cycle 7-related protein kinase; experiment: Inhibition of GST full length human CDC7 (1 to 574 residues) expressed in baculovirus expression system

SMILES: O=c1[nH]c([C@@H]2CCCN2)nc2c1oc1ccc(Cl)cc12
- IC50 [2]: 215 nM

SMILES: Cc1n[nH]cc1-c1cc2nc([C@@H]3CCCCN3)[nH]c(=O)c2s1
- IC50 [5]: 36 nM
- IC50 [6]: 6500 nM

SMILES: Cn1nccc1-c1nc(C2CCOCC2)c(Cl)c(=O)[nH]1
- IC50 [8]: 91.2 nM

SMILES: O=c1[nH]c([C@@H]2CC3CCN2CC3)nc2c3c(sc12)-c1c[nH]nc1CCC3
- IC50 [7]: 3020 nM

SMILES: Cc1[nH]c(=O)c2sc(-c3cn[nH]c3)c3c2c1CCCO3
- IC50 [7]: < 1000 nM

More lines, now with the values ahead:

- IC50 [1]: 1100 nM
SMILES: NC(=O)c1cc(-c2ccncc2)[nH]c1-c1ccccc1

- IC50 [2]: 1500 nM
SMILES: O=c1[nH]cnc2c1oc1ccc(Br)cc12

- CLH [3]: 102 µL/min/µg
- CLH [4]: 30 µL/min/µg
SMILES: Nc1nccc(-n2cc(-c3cccnc3Cl)c3cnc(Cl)cc32)n1

- CLH [3]: 72 µL/min/µg
- CLH [4]: 21 µL/min/µg
SMILES: Nc1nccc(-n2cc(-c3cccnc3Cl)c3cnccc32)n1

- CLH [3]: 50 µL/min/µg
- CLH [4]: 60 µL/min/µg
SMILES: Nc1nccc(-n2ccc3ncccc32)n1

- CLH [3]: 101 µL/min/µg
- CLH [4]: 62 µL/min/µg
SMILES: Nc1nccc(-n2ccc3cnccc32)n1

- IC50 [7]: < 1000 nM
SMILES: N[C@H](c1nc2cc(-c3ccncc3F)sc2c(=O)[nH]1)C1CC1
